Measured values reported in PMC5041162, “Chemistry and Molecular Dynamics Simulations of Heme b-HemQ and Coproheme-HemQ” (Biochemistry, 2016).

Assays:
[1] = target: T1, apo-LmHemQ (HemQ from Listeria monocytogenes) (Listeria monocytogenes serovar 1/2a, UniProt Q8Y5F1); type: binding; conditions: pH 7
T1 construct: made in house; host or cells: Escherichia coli
Protocol: (§1) Time-resolved binding of coproheme to apo-HemQ was monitored using a stopped-flow apparatus equipped with a diode array detector (model SX-18MV, Applied Photophysics), in the conventional mode. […] The fastest mixing time was 1 ms. […]. Experiments were conducted in 50 mM phosphate buffer (pH 7.0). Reactions were simulated, and rates were estimated using Pro-Kineticists software (Applied Photophysics). The apparent second-order rate constants, kon, were obtained from the slope of a plot of kobs versus coproheme concentration.

[2] = target: T2, apo-SaHemQ (HemQ from Staphylococcus aureus) (Staphylococcus aureus, UniProt A6QEP0); type: binding; conditions: pH 7
T2 construct: poly-His (C); made in house; host or cells: Escherichia coli BL21(DE3)pLysS
T2 sequence (A6QEP0 whole entry): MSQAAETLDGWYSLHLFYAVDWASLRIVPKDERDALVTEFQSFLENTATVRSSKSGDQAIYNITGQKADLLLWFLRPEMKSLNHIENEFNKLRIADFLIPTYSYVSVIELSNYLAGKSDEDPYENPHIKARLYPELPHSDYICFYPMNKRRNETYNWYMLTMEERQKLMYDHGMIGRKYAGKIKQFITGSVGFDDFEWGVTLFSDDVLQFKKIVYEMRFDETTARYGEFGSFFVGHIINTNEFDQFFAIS
Protocol: as §1

[3] = system: apo-SaHemQ and apo-LmHemQ; type: binding, S. aureus and L. monocytogenes
Protocol: as §1

SaHemQ = type: binding, Staphylococcus aureus
Protocol: Differential scanning calorimetry (DSC) measurements were performed using a VP-capillary DSC microcalorimeter from Microcal with a cell volume of 137 μL. The measurements were controlled by the VP-viewer program, and the instrument was equipped with an autosampler for 96-well plates. Samples were analyzed using a programmed heating scan rate of 60 °C h^–1 over a temperature range from 20 to 100 °C, and the cell pressure was approximately 60 psi (4.136 bar). DSC thermograms were corrected for buffer baseline and protein concentration. Apo-, heme b-, or coproheme-LmHemQ and SaHemQ (5 μM each) in 50 mM phosphate buffer (pH 7.0) were used for each measurement. For data analysis and conversion, the Microcal origin software was used. Heat capacity (Cp) was expressed in kilocalories per mole per kelvin. Data points were fitted to non-two-state equilibrium unfolding models by the Lavenberg–Marquardt (LM) nonlinear least-squares method.

apo-myoglobin = conditions: cited from earlier work

T1 sequence (Q8Y5F1 whole entry): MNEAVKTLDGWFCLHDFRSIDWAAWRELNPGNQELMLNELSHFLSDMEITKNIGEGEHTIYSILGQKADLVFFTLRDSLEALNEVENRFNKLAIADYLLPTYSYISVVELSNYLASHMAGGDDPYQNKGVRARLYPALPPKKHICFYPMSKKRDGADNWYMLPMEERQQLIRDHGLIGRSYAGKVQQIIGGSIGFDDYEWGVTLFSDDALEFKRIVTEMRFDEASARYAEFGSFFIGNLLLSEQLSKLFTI

Row | SMILES | kon, binding of coproheme to apo-HemQ, first (fast) phase [1] | kon, binding of coproheme to apo-HemQ, second (slow) phase [1] | kon, binding of coproheme to apo-HemQ, first (fast) phase [2] | kon, binding of coproheme to apo-HemQ, second (slow) phase [2] | rate of coproheme binding, fast phase [3] | increase of Tm when coproheme binds (SaHemQ) | KD of the prosthetic group to apo-myoglobin (apo-myoglobin)
1 | CC1=C(CCC(=O)O)c2cc3[n-]c(cc4nc(cc5[n-]c(cc1n2)c(CCC(=O)O)c5C)C(C)=C4CCC(=O)O)c(CCC(=O)O)c3C.[Fe] [coproheme, iron coproporphyrin III] | ~1.5 × 10^8 M^–1 s^–1 | 2.2 × 10^6 M^–1 s^–1 | ~2.0 × 10^8 M^–1 s^–1 | 3.7 × 10^6 M^–1 s^–1 | 1.5–2 × 10^8 M^–1 s^–1 | 14 °C | 
2 | C=CC1=C(C)c2cc3[n-]c(cc4nc(cc5[n-]c(cc1n2)c(C)c5CCC(=O)O)C(CCC(=O)O)=C4C)c(C)c3C=C.[Fe+3] [hemin] |  |  |  |  |  |  | low nanomolar range
